Experimental data from ChEMBL document CHEMBL3351318, “Synthesis of novel 4-nitropyrrole-based semicarbazide and thiosemicarbazide hybrids with antimicrobial and anti-tubercular activity” (Bioorg Med Chem Lett, 2014).
In brackets after ≈: the same amount, converted by molar mass.

Experiments:
Escherichia coli [1] = experiment: Antimicrobial activity against Escherichia coli ATCC 25922 after 48 hrs by broth dilution technique; assay type: functional; conditions: ATCC 25922, 48 h
Klebsiella pneumoniae = experiment: Antimicrobial activity against Klebsiella pneumoniae after 48 hrs by broth dilution technique; assay type: functional
Staphylococcus aureus [2] = experiment: Antimicrobial activity against methicillin-sensitive Staphylococcus aureus ATCC 35556 after 48 hrs by broth dilution technique; assay type: functional; conditions: ATCC 35556, 48 h
Staphylococcus aureus [3] = experiment: Antimicrobial activity against methicillin-resistant Staphylococcus aureus ATCC 43866 after 48 hrs by broth dilution technique; assay type: functional; conditions: ATCC 43866, 48 h
Candida albicans [4] = experiment: Antimicrobial activity against Candida albicans after 48 hrs by agar dilution method; assay type: functional
[5] = system: Mycobacterium tuberculosis; experiment: Antitubercular activity against Mycobacterium tuberculosis H37Rv after 7 days by Resazurin micro titer assay; assay type: functional; conditions: 168 h
Vero = experiment: Cytotoxicity against African green monkey Vero cells assessed as reduction in cell viability after 72 hrs by MTT assay; assay type: cell-based; conditions: Chlorocebus sabaeus
Escherichia coli [6] = experiment: Ratio of ciprofloxacin MIC to compound MIC for Escherichia coli ATCC 25922 after 48 hrs by broth dilution technique; assay type: functional
Candida albicans [7] = experiment: Ratio of Amphotericin B MIC to compound MIC for Candida albicans after 48 hrs by broth dilution technique; assay type: functional
Staphylococcus aureus [8] = experiment: Ratio of ciprofloxacin MIC to compound MIC for methicillin-sensitive Staphylococcus aureus ATCC 35556 after 48 hrs by broth dilution technique; assay type: functional
Staphylococcus aureus [9] = experiment: Ratio of ciprofloxacin MIC to compound MIC for methicillin-resistant Staphylococcus aureus ATCC 43866 after 48 hrs by broth dilution technique; assay type: functional

SMILES | MIC (Escherichia coli [1]) | MIC (Klebsiella pneumoniae) | MIC (Staphylococcus aureus [2]) | MIC (Staphylococcus aureus [3]) | MIC (Candida albicans [4]) | MIC [5] | IC50 (Vero) | Ratio (Escherichia coli [6]) | Ratio (Candida albicans [7]) | Ratio (Staphylococcus aureus [8]) | Ratio (Staphylococcus aureus [9])
Cn1cc([N+](=O)[O-])cc1C(=O)NNC(=S)Nc1ccc([N+](=O)[O-])cc1 | 0.39 µg/mL (≈ 1.07 µM) | 1.56 µg/mL (≈ 4.28 µM) | 0.195 µg/mL (≈ 0.535 µM) | 0.39 µg/mL (≈ 1.07 µM) | 0.78 µg/mL (≈ 2.14 µM) | 53.8 µg/mL (≈ 148 µM) | 395 µM | 4 | 4 | 8 | 8
COc1ccc(NC(=S)NNC(=O)c2cc([N+](=O)[O-])cn2C)cc1 | 0.39 µg/mL (≈ 1.12 µM) | 1.56 µg/mL (≈ 4.47 µM) | 0.195 µg/mL (≈ 0.558 µM) | 0.39 µg/mL (≈ 1.12 µM) | 0.78 µg/mL (≈ 2.23 µM) | 19.4 µg/mL (≈ 55.5 µM) | 184 µM | 4 | 4 | 8 | 8
Cn1cc([N+](=O)[O-])cc1C(=O)NNC(=S)Nc1ccc(F)cc1 | 0.39 µg/mL (≈ 1.16 µM) | 1.56 µg/mL (≈ 4.62 µM) | 0.195 µg/mL (≈ 0.578 µM) | 0.39 µg/mL (≈ 1.16 µM) | 0.78 µg/mL (≈ 2.31 µM) | 6.7 µg/mL (≈ 19.9 µM) | 662 µM | 4 | 4 | 8 | 8
Cn1cc([N+](=O)[O-])cc1C(=O)NNC(=S)Nc1ccccc1F | 0.39 µg/mL (≈ 1.16 µM) | 1.56 µg/mL (≈ 4.62 µM) | 0.39 µg/mL (≈ 1.16 µM) | 0.78 µg/mL (≈ 2.31 µM) | 0.78 µg/mL (≈ 2.31 µM) | 3.2 µg/mL (≈ 9.49 µM) | 293 µM | 4 | 4 | 4 | 4
Cn1cc([N+](=O)[O-])cc1C(=O)NNC(=S)Nc1ccc(Cl)cc1 | 0.39 µg/mL (≈ 1.1 µM) | 1.56 µg/mL (≈ 4.41 µM) | 0.195 µg/mL (≈ 0.551 µM) | 0.39 µg/mL (≈ 1.1 µM) | 0.78 µg/mL (≈ 2.2 µM) | 16.3 µg/mL (≈ 46.1 µM) | 210 µM | 4 | 4 | 8 | 8
Cn1cc([N+](=O)[O-])cc1C(=O)NNC(=S)NC1CCCCC1 | 0.39 µg/mL (≈ 1.2 µM) | 1.56 µg/mL (≈ 4.79 µM) | 0.39 µg/mL (≈ 1.2 µM) | 0.78 µg/mL (≈ 2.4 µM) | 0.78 µg/mL (≈ 2.4 µM) | 27.5 µg/mL (≈ 84.5 µM) | 352 µM | 4 | 4 | 4 | 4
Cc1ccccc1NC(=S)NNC(=O)c1cc([N+](=O)[O-])cn1C | 0.39 µg/mL (≈ 1.17 µM) | 1.56 µg/mL (≈ 4.68 µM) | 0.39 µg/mL (≈ 1.17 µM) | 0.78 µg/mL (≈ 2.34 µM) | 0.78 µg/mL (≈ 2.34 µM) | 11.9 µg/mL (≈ 35.7 µM) | 471 µM | 4 | 4 | 4 | 
